Laboratory results: patent US11878965B2, “Inhibitors of peptidylarginine deiminases” (Gilead Sciences, Inc., priority 2020, dated 2024)

What follows are compounds tested against human PAD4 (Homo sapiens (Human), UniProt Q9UM07) (assay: In Vitro PAD4 BAEE Biochemical Assay). Conditions: human PAD4, BAEE substrate; 5 nM PAD4, 2 mM calcium chloride, 3 mM BAEE; geometric mean of multiple experiments.
In short: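 Recombinant human PAD4 (His-SUMO tag removed, E. coli-expressed), 5 nM, preincubated with compound and 2 mM CaCl2 30 min at 25 °C in MOPS pH 7.6 with DTT; 3 mM BAEE added for 2 h at 25 °C, EDTA stop. Released ammonia detected by o-phthalaldehyde/DTT fluorescence (ex 405, em 535 nm).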

Sequence of human PAD4 (Q9UM07 2-663): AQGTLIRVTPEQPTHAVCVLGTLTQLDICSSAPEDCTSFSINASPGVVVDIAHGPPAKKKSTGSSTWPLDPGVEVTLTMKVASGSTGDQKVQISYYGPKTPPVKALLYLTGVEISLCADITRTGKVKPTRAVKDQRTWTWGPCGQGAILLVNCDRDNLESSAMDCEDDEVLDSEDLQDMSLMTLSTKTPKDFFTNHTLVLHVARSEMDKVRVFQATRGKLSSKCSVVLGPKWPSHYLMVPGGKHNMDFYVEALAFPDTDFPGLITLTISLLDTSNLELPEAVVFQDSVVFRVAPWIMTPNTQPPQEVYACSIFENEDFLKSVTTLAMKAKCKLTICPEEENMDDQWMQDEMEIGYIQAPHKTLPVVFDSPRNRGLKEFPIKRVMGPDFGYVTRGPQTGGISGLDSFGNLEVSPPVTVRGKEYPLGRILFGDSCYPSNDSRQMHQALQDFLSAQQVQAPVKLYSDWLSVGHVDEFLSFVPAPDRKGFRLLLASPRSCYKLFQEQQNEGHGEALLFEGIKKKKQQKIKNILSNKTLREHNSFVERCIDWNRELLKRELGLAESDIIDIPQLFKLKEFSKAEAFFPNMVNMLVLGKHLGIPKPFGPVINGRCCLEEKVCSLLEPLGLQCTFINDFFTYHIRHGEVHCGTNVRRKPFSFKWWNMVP

First: COc1cc(C(=O)N2C[C@H](N)CCN2C)cc2nc(-c3cc4ccc([C@@H](C)NC(=O)c5cc(F)cc(F)c5)nc4n3CC3CC3)n(C)c12 [Example 156, N-((R)-1-(2-(5-((R)-5-amino-2-methylhexahydropyridazine-1-carbonyl)-7-methoxy-1-methyl-1H-benzo[d]imidazol-2-yl)-1-(cyclopropylmethyl)-1H-pyrrolo[2,3-b]pyridin-6-yl)ethyl)-3,5-difluorobenzamide]
Second: COc1cc(C(=O)N2C[C@H](N)CCN2C)cc2nc(-c3cc4ccc([C@@H](C)NC(=O)c5c(F)cc(F)cc5F)nc4n3CC3CC3)n(C)c12 [Example 157, N-((R)-1-(2-(5-((R)-5-amino-2-methylhexahydropyridazine-1-carbonyl)-7-methoxy-1-methyl-1H-benzo[d]imidazol-2-yl)-1-(cyclopropylmethyl)-1H-pyrrolo[2,3-b]pyridin-6-yl)ethyl)-2,4,6-trifluorobenzamide]
The IC50 of the first is 1.9-fold higher: 0.166 µM for the first, 0.0874 µM for the second.

Going from `COc1cc(C(=O)N2C[C@H](N)CCN2C)cc2nc(-c3cc4ccc([C@@H](C)NC(=O)Cc5ccccc5)nc4n3CC3CC3)n(C)c12` [Example 158, N-((R)-1-(2-(5-((R)-5-amino-2-methylhexahydropyridazine-1-carbonyl)-7-methoxy-1-methyl-1H-benzo[d]imidazol-2-yl)-1-(cyclopropylmethyl)-1H-pyrrolo[2,3-b]pyridin-6-yl)ethyl)-2-phenylacetamide] to `COc1cc(C(=O)N2C[C@H](N)CCN2C)cc2nc(-c3cc4ccc([C@@H](C)NC(=O)[C@H](C)c5ccccc5)nc4n3CC3CC3)n(C)c12` [Example 164, (R)-N-((R)-1-(2-(5-((R)-5-amino-2-methylhexahydropyridazine-1-carbonyl)-7-methoxy-1-methyl-1H-benzo[d]imidazol-2-yl)-1-(cyclopropylmethyl)-1H-pyrrolo[2,3-b]pyridin-6-yl)ethyl)-2-phenylpropanamide], the IC50 rises from 0.0762 µM to 0.148 µM (1.9-fold). The first is the more potent here.

First: COc1cc(C(=O)N2C[C@H](N)CCN2C)cc2nc(-c3cc4ccc([C@@H](C)NC(=O)C(C)(C)c5ccccc5)nc4n3CC3CC3)n(C)c12 [Example 159, N-((R)-1-(2-(5-((R)-5-amino-2-methylhexahydropyridazine-1-carbonyl)-7-methoxy-1-methyl-1H-benzo[d]imidazol-2-yl)-1-(cyclopropylmethyl)-1H-pyrrolo[2,3-b]pyridin-6-yl)ethyl)-2-methyl-2-phenylpropanamide]
Second: COc1cc(C(=O)N2C[C@H](N)CCN2C)cc2nc(-c3cc4ccc([C@@H](C)NC(=O)C(F)(F)c5ccccc5)nc4n3CC3CC3)n(C)c12 [Example 167, N-((R)-1-(2-(5-((R)-5-amino-2-methylhexahydropyridazine-1-carbonyl)-7-methoxy-1-methyl-1H-benzo[d]imidazol-2-yl)-1-(cyclopropylmethyl)-1H-pyrrolo[2,3-b]pyridin-6-yl)ethyl)-2,2-difluoro-2-phenylacetamide]
The IC50 of the first is 1.7-fold lower: 0.229 µM for the first, 0.388 µM for the second.

Going from `COc1cc(C(=O)N2C[C@H](N)CCN2C)cc2nc(-c3cc4ccc([C@@H](C)NC(=O)C5(c6ccccc6)CC5)nc4n3CC3CC3)n(C)c12` [Example 160, N-((R)-1-(2-(5-((R)-5-amino-2-methylhexahydropyridazine-1-carbonyl)-7-methoxy-1-methyl-1H-benzo[d]imidazol-2-yl)-1-(cyclopropylmethyl)-1H-pyrrolo[2,3-b]pyridin-6-yl)ethyl)-1-phenylcyclopropane-1-carboxamide] to `COc1cc(C(=O)N2C[C@H](N)CCN2C)cc2nc(-c3cc4ccc([C@@H](C)NC(=O)C5(c6ccc(C(F)(F)F)cc6)CC5)nc4n3CC3CC3)n(C)c12` [Example 163, N-((R)-1-(2-(5-((R)-5-amino-2-methylhexahydropyridazine-1-carbonyl)-7-methoxy-1-methyl-1H-benzo[d]imidazol-2-yl)-1-(cyclopropylmethyl)-1H-pyrrolo[2,3-b]pyridin-6-yl)ethyl)-1-(4-(trifluoromethyl)phenyl)cyclopropane-1-carboxamide], the IC50 rises from 0.481 µM to 4.05 µM (8.4-fold). The first is the more potent here.

`COc1cc(C(=O)N2C[C@H](N)CCN2C)cc2nc(-c3cc4ccc([C@@H](C)NC(=O)C(C)(C)C)nc4n3CC3CC3)n(C)c12` [Example 161, N-((R)-1-(2-(5-((R)-5-amino-2-methylhexahydropyridazine-1-carbonyl)-7-methoxy-1-methyl-1H-benzo[d]imidazol-2-yl)-1-(cyclopropylmethyl)-1H-pyrrolo[2,3-b]pyridin-6-yl)ethyl)pivalamide] and `COc1cc(C(=O)N2C[C@H](N)CCN2C)cc2nc(-c3cc4ccc([C@@H](C)NC(=O)[C@@H]5CC5(F)F)nc4n3CC3CC3)n(C)c12` [Example 168, (S)-N-((R)-1-(2-(5-((R)-5-amino-2-methylhexahydropyridazine-1-carbonyl)-7-methoxy-1-methyl-1H-benzo[d]imidazol-2-yl)-1-(cyclopropylmethyl)-1H-pyrrolo[2,3-b]pyridin-6-yl)ethyl)-2,2-difluorocyclopropane-1-carboxamide] are within 1.5-fold of each other in IC50: 0.0723 µM for the first, 0.102 µM for the second.

`COc1cc(C(=O)N2C[C@H](N)CCN2C)cc2nc(-c3cc4ccc([C@@H](C)NC(=O)C5CC(F)(F)C5)nc4n3CC3CC3)n(C)c12` [Example 162, N-((R)-1-(2-(5-((R)-5-amino-2-methylhexahydropyridazine-1-carbonyl)-7-methoxy-1-methyl-1H-benzo[d]imidazol-2-yl)-1-(cyclopropylmethyl)-1H-pyrrolo[2,3-b]pyridin-6-yl)ethyl)-3,3-difluorocyclobutane-1-carboxamide] and `COc1cc(C(=O)N2C[C@H](N)CCN2C)cc2nc(-c3cc4ccc([C@@H](C)NC(=O)C56CC(F)(C5)C6)nc4n3CC3CC3)n(C)c12` [Example 171, N-((R)-1-(2-(5-((R)-5-amino-2-methylhexahydropyridazine-1-carbonyl)-7-methoxy-1-methyl-1H-benzo[d]imidazol-2-yl)-1-(cyclopropylmethyl)-1H-pyrrolo[2,3-b]pyridin-6-yl)ethyl)-3-fluorobicyclo[1.1.1]pentane-1-carboxamide] are within 1.5-fold of each other in IC50: 0.0921 µM for the first, 0.0902 µM for the second.

Going from `COc1cc(C(=O)N2C[C@H](N)CCN2C)cc2nc(-c3cc4ccc([C@@H](C)NC(=O)[C@@H](C)c5ccccc5)nc4n3CC3CC3)n(C)c12` [Example 165, (S)-N-((R)-1-(2-(5-((R)-5-amino-2-methylhexahydropyridazine-1-carbonyl)-7-methoxy-1-methyl-1H-benzo[d]imidazol-2-yl)-1-(cyclopropylmethyl)-1H-pyrrolo[2,3-b]pyridin-6-yl)ethyl)-2-phenylpropanamide] to `COc1cc(C(=O)N2C[C@H](N)CCN2C)cc2nc(-c3cc4ccc([C@@H](C)NC(=O)c5ccccc5C(F)F)nc4n3CC3CC3)n(C)c12` [Example 166, N-((R)-1-(2-(5-((R)-5-amino-2-methylhexahydropyridazine-1-carbonyl)-7-methoxy-1-methyl-1H-benzo[d]imidazol-2-yl)-1-(cyclopropylmethyl)-1H-pyrrolo[2,3-b]pyridin-6-yl)ethyl)-2-(difluoromethyl)benzamide], the IC50 rises from 0.0914 µM to 0.18 µM (2-fold).

`COc1cc(C(=O)N2C[C@H](N)CCN2C)cc2nc(-c3cc4ccc([C@@H](C)NC(=O)c5cnn(C)c5)nc4n3CC3CC3)n(C)c12` [Example 169, N-((R)-1-(2-(5-((R)-5-amino-2-methylhexahydropyridazine-1-carbonyl)-7-methoxy-1-methyl-1H-benzo[d]imidazol-2-yl)-1-(cyclopropylmethyl)-1H-pyrrolo[2,3-b]pyridin-6-yl)ethyl)-1-methyl-1H-pyrazole-4-carboxamide] and `COc1cc(C(=O)N2C[C@H](N)CCN2C)cc2nc(-c3cc4ccc([C@@H](C)NC(=O)c5cnn(C(F)F)c5)nc4n3CC3CC3)n(C)c12` [Example 170, N-((R)-1-(2-(5-((R)-5-amino-2-methylhexahydropyridazine-1-carbonyl)-7-methoxy-1-methyl-1H-benzo[d]imidazol-2-yl)-1-(cyclopropylmethyl)-1H-pyrrolo[2,3-b]pyridin-6-yl)ethyl)-1-(difluoromethyl)-1H-pyrazole-4-carboxamide] are within 1.5-fold of each other in IC50: 0.0478 µM for the first, 0.0671 µM for the second.

`COc1cc(C(=O)N2C[C@H](N)CCN2C)cc2nc(-c3cc4ccc([C@@H](C)NC(=O)c5c(C)cccc5C)nc4n3CC3CC3)n(C)c12` [Example 172, N-((R)-1-(2-(5-((R)-5-amino-2-methylhexahydropyridazine-1-carbonyl)-7-methoxy-1-methyl-1H-benzo[d]imidazol-2-yl)-1-(cyclopropylmethyl)-1H-pyrrolo[2,3-b]pyridin-6-yl)ethyl)-2,6-dimethylbenzamide] and `COc1cc(C(=O)N2C[C@H](N)CCN2C)cc2nc(-c3cc4ccc([C@@H](C)NC(=O)c5ncccc5C)nc4n3CC3CC3)n(C)c12` [Example 175, N-((R)-1-(2-(5-((R)-5-amino-2-methylhexahydropyridazine-1-carbonyl)-7-methoxy-1-methyl-1H-benzo[d]imidazol-2-yl)-1-(cyclopropylmethyl)-1H-pyrrolo[2,3-b]pyridin-6-yl)ethyl)-3-methylpicolinamide] are within 1.5-fold of each other in IC50: 0.147 µM for the first, 0.139 µM for the second.

Compared with `COc1cc(C(=O)N2[C@H]3CC[C@@H]2[C@H](N)C3)cc2nc(-c3cc4ccc([C@@H](C)NC(=O)C5(n6cccn6)CC5)nc4n3CC3CC3)n(C)c12` [Example 173, N-((R)-1-(2-(5-((1R,2R,4S)-2-amino-7-azabicyclo[2.2.1]heptane-7-carbonyl)-7-methoxy-1-methyl-1H-benzo[d]imidazol-2-yl)-1-(cyclopropylmethyl)-1H-pyrrolo[2,3-b]pyridin-6-yl)ethyl)-1-(1H-pyrazol-1-yl)cyclopropane-1-carboxamide], `COc1cc(C(=O)N2[C@H]3CC[C@@H]2[C@H](N)C3)cc2nc(-c3cc4ccc([C@@H](C)NC(=O)Cn5cccn5)nc4n3CC3CC3)n(C)c12` [Example 174, N-((R)-1-(2-(5-((1R,2R,4S)-2-amino-7-azabicyclo[2.2.1]heptane-7-carbonyl)-7-methoxy-1-methyl-1H-benzo[d]imidazol-2-yl)-1-(cyclopropylmethyl)-1H-pyrrolo[2,3-b]pyridin-6-yl)ethyl)-2-(1H-pyrazol-l-yl)acetamide] is 2.1-fold lower in IC50: 0.0967 µM for the first, 0.0451 µM for the second. The second is the more potent here.
